Experimental data published in PMC8628145 (Cancer chemotherapy and pharmacology, 2021).
Where “and” joins values, the source holds several entries; their conditions need not be identical. Equal entries are not always repeated. One block for each compound: values may come before it.

Legend:
[1] = system: human RKO colon cancer cells; assay: Immunoblot of α- and β-tubulin expression in RKO cells; type: cell-based; details: supplemental Fig. 3A
PlGF = assay: Plasma placental growth factor level; type: in vivo, human
[2] = day 5, previously reported; cited from earlier work
p-Tyr1234/5-Met = p-Tyr1234/5-Met (Homo sapiens, UniProt P08581); assay: Skin biopsy immunohistochemistry, p-MET expression; type: in vivo; details: skin biopsies following tivantinib (with bevacizumab), C1D15
p-Tyr1234/5-Met, sequence (P08581 25-1390): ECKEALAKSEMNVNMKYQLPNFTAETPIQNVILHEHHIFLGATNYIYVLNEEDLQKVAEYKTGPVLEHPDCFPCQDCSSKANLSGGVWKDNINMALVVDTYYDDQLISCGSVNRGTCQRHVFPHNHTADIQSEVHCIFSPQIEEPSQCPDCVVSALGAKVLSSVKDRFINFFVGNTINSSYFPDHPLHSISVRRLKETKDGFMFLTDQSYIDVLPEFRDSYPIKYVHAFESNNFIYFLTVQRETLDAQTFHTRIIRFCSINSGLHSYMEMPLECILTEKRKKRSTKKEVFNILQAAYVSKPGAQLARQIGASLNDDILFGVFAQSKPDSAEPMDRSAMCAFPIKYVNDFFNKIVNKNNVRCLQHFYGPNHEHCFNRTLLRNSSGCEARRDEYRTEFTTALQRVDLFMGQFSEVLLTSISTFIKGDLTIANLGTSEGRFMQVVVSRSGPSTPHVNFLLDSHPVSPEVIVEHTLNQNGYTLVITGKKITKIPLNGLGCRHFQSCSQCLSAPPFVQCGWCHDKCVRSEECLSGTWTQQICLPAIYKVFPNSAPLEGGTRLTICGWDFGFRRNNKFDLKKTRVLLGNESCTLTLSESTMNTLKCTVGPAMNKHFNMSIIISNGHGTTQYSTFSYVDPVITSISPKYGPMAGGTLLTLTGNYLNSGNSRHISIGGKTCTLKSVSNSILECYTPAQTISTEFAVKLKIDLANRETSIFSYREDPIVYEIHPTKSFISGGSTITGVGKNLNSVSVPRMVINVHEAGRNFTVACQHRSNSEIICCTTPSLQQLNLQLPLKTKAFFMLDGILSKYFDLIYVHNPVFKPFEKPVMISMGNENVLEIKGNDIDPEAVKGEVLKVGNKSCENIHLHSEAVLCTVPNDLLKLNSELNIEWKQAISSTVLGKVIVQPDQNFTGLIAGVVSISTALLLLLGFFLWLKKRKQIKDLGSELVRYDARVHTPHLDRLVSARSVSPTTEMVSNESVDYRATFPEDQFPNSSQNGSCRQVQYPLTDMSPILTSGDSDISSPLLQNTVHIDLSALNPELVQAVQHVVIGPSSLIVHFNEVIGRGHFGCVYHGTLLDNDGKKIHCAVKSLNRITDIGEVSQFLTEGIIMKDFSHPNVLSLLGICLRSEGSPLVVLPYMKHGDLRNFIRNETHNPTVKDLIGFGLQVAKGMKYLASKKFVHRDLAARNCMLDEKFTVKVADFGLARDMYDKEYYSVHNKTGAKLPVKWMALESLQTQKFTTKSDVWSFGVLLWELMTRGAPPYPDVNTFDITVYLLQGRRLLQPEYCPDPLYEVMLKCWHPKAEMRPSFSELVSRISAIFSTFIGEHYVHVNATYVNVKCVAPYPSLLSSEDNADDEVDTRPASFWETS

HGF = assay: Plasma HGF level; type: in vivo, human
[3] = Plasma pharmacokinetics of tivantinib and metabolites; details: for Cl/F: first dose, based on AUC0–inf; for half-life: t½
CYP3A4 = details: at 50 µM (~ 18 µg/mL); ArQule data on file; cited from earlier work
[4] = human, in vivo, 1 day
tubulin = assay: Tubulin polymerization assay; type: biochemical; details: supplemental Fig. 3B
VEGF-A = assay: Plasma VEGF-A level; type: in vivo, human
soluble VEGFR1 (sVEGFR1) = assay: Plasma soluble VEGFR1 level; type: in vivo, human
Met = Met (Homo sapiens, UniProt P08581); assay: Skin biopsy immunohistochemistry, total MET expression; type: in vivo; details: skin biopsies after tivantinib treatment
Met, sequence (P08581 25-1390): as above

bFGF = assay: Plasma bFGF level; type: in vivo, human
beta-tubulin = assay: Skin biopsy immunohistochemistry, tubulin expression; type: in vivo, human; details: skin biopsies, oral tivantinib for two weeks (with bevacizumab), C1D15
β-tubulin = assay: Total β-tubulin expression in patient PBMCs by immunoblot; type: in vivo, human; details: following tivantinib treatment, data not shown
[5] = addition of tivantinib to bevacizumab

Compound: CC[C@]1(O)C[C@H]2CN(CCc3c([nH]c4ccccc34)[C@@](C(=O)OC)(c3cc4c(cc3OC)N(C=O)[C@H]3[C@@](O)(C(=O)OC)[C@H](OC(C)=O)[C@]5(CC)C=CCN6CC[C@]43[C@@H]65)C2)C1 [vincristine, reference compound]
α- and β-tubulin protein expression [1]: loss of both α- and β-tubulin protein expression

Patients with reduced p-MET expression in skin (p-Tyr1234/5-Met): 7/11 and 7 of 11
t½ ([3]; Total (N = 11), all dose levels, day 1, plasma, mean (SD)): 5.1 (2.4) h
Cl/F ([3]; Total (N = 11), mean (SD)): 24.9 L/h
AUC(0-t) ([3]; human, plasma, oral, AUC0–8, tivantinib 360/240 mg AM/PM (N = 1), day 1, plasma): 5020 ng·h/mL
Tmax ([3]; human, plasma, oral, Tmax, tivantinib 120/120 mg AM/PM (N = 1), day 1, plasma): 2.5 h
Tmax ([3]; human, plasma, oral, Tmax, tivantinib 360/240 mg AM/PM (N = 1), day 1, plasma): 3 h
half-life ([3]; human, plasma, oral, tivantinib 120/120 mg AM/PM (N = 1), day 1, plasma): 8.2 h
half-life ([3]; human, plasma, oral, tivantinib 360/240 mg AM/PM (N = 1), day 1, plasma): 9.2 h
Tmax ([3]; human, plasma, po, Time of peak plasma concentration, day 1, all 11 patients): ~3 h
AUC0–8 ([3]; tivantinib 120/120 mg AM/PM (N = 1), day 1, plasma): 5570 ng·h/mL
Cl/F ([3]; tivantinib 120/120 mg AM/PM (N = 1)): 9.43 L/h
Cl/F ([3]; tivantinib 360/240 mg AM/PM (N = 1)): 25.8 L/h
Time for accumulation to reach steady-state ([3]; twice daily dosing): ≤ 24 h
Dose-normalised exposure on day 1 [4]: 5.82 ng/mL/mg
Total MET expression in the cytoplasm (skin) (Met): remained unchanged
Compound: O=C1NC(=O)[C@@H](c2cn3c4c(cccc24)CCC3)[C@@H]1c1c[nH]c2ccccc12 [tivantinib]
Plasma PIGF concentrations (PlGF; [5]): did not alter PIGF concentrations
α- and β-tubulin protein expression [1]: loss of both α- and β-tubulin protein expression
Steady-state clearance [2]: 11.8 L/h
Plasma HGF concentrations (HGF; addition of tivantinib, in the six patients with increase after bevacizumab): decreased in these same patients
Time-dependent inhibition of CYP3A4 (CYP3A4): exhibits time-dependent inhibition
Tubulin polymerization (tubulin): inhibited tubulin polymerization, but not to the same extent as vincristine
Plasma VEGF-A concentrations (VEGF-A; [5]): did not alter VEGF-A concentrations
Plasma sVEGFR1 concentrations (soluble VEGFR1 (sVEGFR1); following tivantinib administration): increased in four patients
Plasma bFGF concentrations (bFGF; day 15, following 14 days of tivantinib added to bevacizumab, p = 0.047): returned to baseline in most patients
Patients with substantial reductions in tubulin expression in skin (beta-tubulin): 4/11 and 4 of 11
Tubulin expression in patient PBMCs (β-tubulin): No significant differences

Compound: bevacizumab [reference compound]
Average increase of plasma PIGF (PlGF; after bevacizumab treatment): 60%
Patients with increased plasma PIGF (PlGF; after bevacizumab treatment, p = 0.005): 10 of 11
Plasma HGF concentrations (HGF; after bevacizumab treatment): increased in six patients
Plasma VEGF-A (VEGF-A; after bevacizumab treatment): decreased expression of VEGF-A in two patients (#01; #07) and increases in eight patients
Plasma sVEGFR1 concentrations (soluble VEGFR1 (sVEGFR1); after bevacizumab administration, five patients with elevated baseline): decreased
Patients with increased plasma bFGF (bFGF; after bevacizumab-only lead-in (day 1 vs day − 15), p = 0.008): 8 of 11
